Laboratory results from ChEMBL document CHEMBL1141429, “Ecdysteroids from the Antarctic tunicate Synoicum adareanum” (J Nat Prod, 2007).

Assays:
HCT-116 = assay: Cytotoxicity against human HCT116 cells after 3 days by disk diffusion assay; type: functional, cell-based; settings: for IC50: HCT-116, 72 h
H125M = assay: Cytotoxicity against human H125M cells after 3 days by disk diffusion assay; type: functional, cell-based
[1] = Cytotoxicity against human CFU-GM cells after 3 days by disk diffusion assay; type: cell-based; settings: 72 h
L1210 = assay: Cytotoxicity against […] cells after 3 days by disk diffusion assay; type: functional, cell-based
CCRF-CEM = assay: Cytotoxicity against human CCRF-CEM cells after 3 days by disk diffusion assay; type: functional, cell-based

C[C@H](CCCC(C)(C)O)[C@H]1CC[C@@]2(O)C3=CC(=O)C4=C[C@H](O)[C@H](O)C[C@]4(C)[C@H]3CC[C@]12C [HYOUSTERONE A]
IC50 (HCT-116): 10.7 µM

C[C@H](CCCC(C)(C)O)[C@H]1CC[C@@]2(O)C3=CC(=O)C4=C[C@H](O)[C@H](O)C[C@]4(C)[C@@]3(O)CC[C@]12C [HYOUSTERONE C]
IC50 (HCT-116): 3.7 µM

C[C@H](CCCC(C)(C)O)[C@H]1CC[C@H]2C3=CC(=O)C4=C[C@H](O)[C@H](O)C[C@]4(C)[C@H]3CC[C@]12C [DIAULUSTEROL B]
Activity (H125M): Not toxic
Activity [1]: Non-toxic
Activity (L1210): Not toxic
Activity (HCT-116): Not toxic
Activity (CCRF-CEM): Not toxic

C[C@H](CCC(C)(C)O)[C@H]1CCC(=O)[C@]23CC(=O)C4=C[C@H](O)[C@H](O)C[C@]4(C)[C@H]2CC[C@]13C [ABEOHYOUSTERONE]
IC50 (HCT-116): 3 µM

C[C@H](CCCC(C)(C)O)[C@H]1CC[C@]2(O)C3=CC(=O)C4=C[C@H](O)[C@H](O)C[C@]4(C)[C@H]3CC[C@]12C [HYOUSTERONE B]
Activity (H125M): Not toxic
Activity [1]: Non-toxic
Activity (L1210): Not toxic
Activity (HCT-116): Not toxic
Activity (CCRF-CEM): Not toxic

C[C@H](CCCC(C)(C)O)[C@H]1CC[C@]2(O)C3=CC(=O)C4=C[C@H](O)[C@H](O)C[C@]4(C)[C@@]3(O)CC[C@]12C [HYOUSTERONE D]
Activity (H125M): Not toxic
Activity [1]: Non-toxic
Activity (L1210): Not toxic
Activity (HCT-116): Not toxic
Activity (CCRF-CEM): Not toxic
